Test results taken from publication PMC3914206.

Legend:
Type in all cases: binding
panel of 442 kinases [1] = biological target: T1, panel of 442 kinases (Homo sapiens, UniProt Q07912); details: kinase TNK2; compound concentration 10 µM
T1 construct: purchased KINOMEscan
Text: (§1) We assessed the selectivity of members of this scaffold using the KINOMEscan methodology across a near comprehensive panel of 442 kinases [[18,27]].

panel of 442 kinases [2] = biological target: T2, panel of 442 kinases (Homo sapiens, UniProt Q86YV6); details: Compound Concentration 10 µM
T2 construct: purchased KINOMEscan
T2 sequence (Q86YV6 1-388): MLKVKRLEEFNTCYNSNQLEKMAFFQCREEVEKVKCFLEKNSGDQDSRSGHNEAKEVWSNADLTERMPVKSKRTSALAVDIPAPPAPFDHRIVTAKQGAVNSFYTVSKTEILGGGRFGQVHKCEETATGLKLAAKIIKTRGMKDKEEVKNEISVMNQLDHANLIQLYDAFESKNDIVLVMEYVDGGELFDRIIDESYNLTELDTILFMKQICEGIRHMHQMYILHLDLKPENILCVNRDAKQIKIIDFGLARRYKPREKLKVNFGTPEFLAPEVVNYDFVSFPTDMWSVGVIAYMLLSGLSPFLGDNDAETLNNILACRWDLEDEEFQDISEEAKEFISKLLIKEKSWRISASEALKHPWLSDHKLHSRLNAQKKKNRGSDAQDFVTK
Text: as §1

panel of 442 kinases [3] = biological target: T3, panel of 442 kinases (Homo sapiens, UniProt P53779); details: Compound Concentration 10 µM
T3 construct: purchased KINOMEscan
Text: as §1

T3 sequence (P53779 whole entry): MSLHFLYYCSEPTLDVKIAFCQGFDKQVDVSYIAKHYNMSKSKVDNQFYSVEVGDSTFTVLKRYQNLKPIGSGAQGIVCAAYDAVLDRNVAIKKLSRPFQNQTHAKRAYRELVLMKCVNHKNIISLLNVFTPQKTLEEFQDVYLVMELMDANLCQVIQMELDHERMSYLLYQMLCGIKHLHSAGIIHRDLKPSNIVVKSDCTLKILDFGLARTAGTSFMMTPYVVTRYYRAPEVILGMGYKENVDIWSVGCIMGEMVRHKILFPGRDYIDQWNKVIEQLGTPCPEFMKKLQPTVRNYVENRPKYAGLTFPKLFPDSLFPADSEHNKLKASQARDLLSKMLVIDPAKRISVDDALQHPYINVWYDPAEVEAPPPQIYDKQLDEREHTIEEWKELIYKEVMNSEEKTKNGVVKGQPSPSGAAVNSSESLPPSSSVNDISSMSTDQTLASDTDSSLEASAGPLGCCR
T1 sequence (Q07912 whole entry): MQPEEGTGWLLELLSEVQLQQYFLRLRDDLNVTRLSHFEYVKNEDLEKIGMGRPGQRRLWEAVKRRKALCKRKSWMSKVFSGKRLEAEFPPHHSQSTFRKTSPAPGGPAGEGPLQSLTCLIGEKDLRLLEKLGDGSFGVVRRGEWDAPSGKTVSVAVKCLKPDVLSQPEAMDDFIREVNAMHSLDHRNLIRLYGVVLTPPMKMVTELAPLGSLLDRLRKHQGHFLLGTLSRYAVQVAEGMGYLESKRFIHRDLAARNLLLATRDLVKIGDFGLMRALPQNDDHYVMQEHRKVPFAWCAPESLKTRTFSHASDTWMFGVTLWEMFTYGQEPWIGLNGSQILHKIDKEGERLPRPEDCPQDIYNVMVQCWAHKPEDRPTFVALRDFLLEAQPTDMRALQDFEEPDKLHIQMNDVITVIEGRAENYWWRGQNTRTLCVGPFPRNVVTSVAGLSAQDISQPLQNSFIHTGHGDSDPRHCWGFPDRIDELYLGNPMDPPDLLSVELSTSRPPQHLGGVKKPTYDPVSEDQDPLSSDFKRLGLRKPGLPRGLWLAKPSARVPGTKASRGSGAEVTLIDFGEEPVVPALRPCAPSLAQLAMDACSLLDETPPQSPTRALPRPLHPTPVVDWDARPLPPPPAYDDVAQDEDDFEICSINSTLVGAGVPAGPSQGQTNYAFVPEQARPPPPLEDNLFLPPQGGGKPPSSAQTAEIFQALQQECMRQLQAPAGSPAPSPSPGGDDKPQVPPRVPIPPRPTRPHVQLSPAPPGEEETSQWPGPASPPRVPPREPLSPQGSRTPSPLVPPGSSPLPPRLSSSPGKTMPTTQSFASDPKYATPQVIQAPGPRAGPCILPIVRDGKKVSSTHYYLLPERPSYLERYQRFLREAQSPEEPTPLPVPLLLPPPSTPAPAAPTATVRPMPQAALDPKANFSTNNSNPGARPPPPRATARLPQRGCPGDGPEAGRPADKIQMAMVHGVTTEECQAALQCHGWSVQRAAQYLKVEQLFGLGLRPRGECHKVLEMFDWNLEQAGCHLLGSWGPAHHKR

Row | SMILES | % Ctrl, TNK2 (panel of 442 kinases [1]) | KINOMEscan: MYLK4 (panel of 442 kinases [2]) | KINOMEscan: JNK3 (panel of 442 kinases [3])
1 | COc1cc(C(=O)N2CCC(N3CCN(C)CC3)CC2)ccc1Nc1ncc2c(n1)N(C)c1ccccc1C(=O)N2C [15 (LRRK2-IN-1)] | 18 % Ctrl | 80 | 77
2 | COc1cc(C(=O)N2CCC(N3CCN(C)CC3)CC2)ccc1Nc1ncc2c(n1)N1CCc3cccc(c31)C(=O)N2C [Compound 24] | 43 % Ctrl | 78 | 43
3 | COc1cc(C(=O)N2CCC(N3CCN(C)CC3)CC2)ccc1Nc1ncc2c(n1)N(C1CCCC1)c1ccccc1C(=O)N2C [Compound 25, 11-cyclopentyl-2-((2-methoxy-4-(4-(4-methylpiperazin-1-yl)piperidine-1-carbonyl)phenyl)amino)-5-methyl-5H-benzo[e]pyrimido[5,4-b][1,4]diazepin-6(11H)-one] | 35 % Ctrl | 88 | 48
4 | CCOc1cc(C(=O)N2CCC(N3CCN(C)CC3)CC2)ccc1Nc1ncc2c(n1)N(C1CCCC1)c1ccccc1C(=O)N2C [Compound 26] | 80 % Ctrl | 100 | 74
